According to patent publication US5011828A, “Immunostimulating guanine derivatives, compositions and methods” (priority 1988, dated 1991):

Test system: murine lymphocytes (sheep red blood cells as antigen)
Assay: Antigen-specific adjuvanticity: direct anti-SRBC plaque forming cells, murine system
Type: cell-based, mouse
Conditions: for Direct Anti-SRBC PFC/Culture: Table 8, 1 × 10^-5 M
Description: ^1 Adjuvanticities against sheep red blood cells [SRBC] measured in
direct plaqueforming cells per culture of lymphocytes from the mouse
strains shown. Details of the procedure are provided in the Materials and
Methods Section. Standard errors from the enumerated mean values are show
A large number of comparisons of adjuvanticity using human and murine lymphocytes as the source of leukocytes have been carried out using compounds of the present invention, as well as with new compounds excluded from the present invention. […] Interstudy comparisons are however useful for showing trends and large differences. Tables 5, 6 and 7, hereinafter, provide exemplary data from such studies in which only the activity at the peak concentration is shown for each compound and the results for the controls are omitted.
Lymphocyte cultures. The serum-containing culture medium water prepared to contain the following per 100 milliliters: 91.9 milliliters RPMI 1640 (Flow Laboratories, Inc., Rockville, Md.), 0.1 milliliters of 100×glutamine, 1.0 milliliter of 100×sodium pyruvate, 1 0 milliliter of 50×nonessential amino acids, 1.0 milliliter of water containing 10^4 units of penicillin G and 10^4 micrograms of streptomycin, and 5.0 milliliters of a supportive lot of fetal calf serum (FCS). These ingredients were admixed to apparent homogeneity. Spleen cell suspensions and populations enriched for splenic B cells were prepared as described in Goodman et al., J. Immunol., 121:1905 (1978).
For evaluation of the primary humoral immune response to sheep erythrocytes (SRBC), 5×10^6 to 10^7 murine spleen cells were cultured in 1.0 milliliter of 5% FCS-containing medium for 4 or 5 days in the presence and absence of immunogen. Cells were incubated in culture trays (Costar, Cambridge, Mass.) at 37° C. in a humidified atmosphere of 10% CO2 in air using tissue culture boxes (CBS Scientific, Del Mar, Calif.) that were rocked at a frequency of 7 cycles per minute. Pooled SRBC are available from the Colorado Serum Co., Denver Colo.
Assay of plaque forming cells (PFC). PFC secreting antibodies against SRBC were evaluated after 4 or 5 days of culture using a modification of the hemolytic plaque assay of Jerne and Nordin, Science, 140:405 (1963). The cells were brought up in complete medium before plaquing; they were plaqued in standard low Mr agarose (Bio-Rad Laboratories, Richmond Calif.), and were incubated in SRBC-absorbed guinea pig complement for one hour after a 1.5 hour incubation without complement.

[1] = Table 5, murine system, at peak concentration

Question: With `Nc1nc2c(nc(Br)n2[C@@H]2O[C@H](CO)[C@@H](O)[C@H]2O)c(=O)[nH]1` [8BrGuo, 8-bromoguanosine, reference compound] as the molecule, how does the “Peak Direct anti-SRBC PFC/Culture” value [1] read?
Answer: 2450 ± 325 PFC/Culture

Question: And the “Peak Direct anti-SRBC PFC/Culture” value (Table 6, first study (note 4))?
Answer: 1167 ± 68 PFC/Culture

Question: And the “Peak Direct anti-SRBC PFC/Culture” value (Table 6, second study (note 4))?
Answer: 633 ± 96 PFC/Culture

Question: Which results are given for `C=CCn1c(=S)n([C@@H]2O[C@H](CO)[C@H]3OC(C)(C)O[C@H]32)c2nc(N)[nH]c(=O)c21` [compound 23083, 7-(2-Propenyl)-8-thioxo-2',3'-O-isopropylidineguanosine hemihydrate]?
Answer: Peak Direct anti-SRBC PFC/Culture (Table 6, murine system, at peak concentration): 2150 ± 250 PFC/Culture; adjuvanticity, in words (murine system): activity substantially identical to that of 7a8oGuo, albeit at about one-half log higher concentration

Question: `C=CCn1c(=S)n([C@@H]2O[C@H](COC(C)=O)[C@H]3OC(C)(C)O[C@H]32)c2nc(N)[nH]c(=O)c21` [compound 23287, 5'-Acetyl-7-(2-propenyl)-2',3'-O-isopropylidene-8-thioxoguanosine] was tested. Which “Peak Direct anti-SRBC PFC/Culture” value (Table 6, first study (note 4)) did it give?
Answer: 1650 ± 63 PFC/Culture

Question: What about the “Peak Direct anti-SRBC PFC/Culture” value (Table 6, second study (note 4)) of the same molecule?
Answer: 1675 ± 298 PFC/Culture

Question: What about the “adjuvanticity, in words” value (murine system) of the same molecule?
Answer: about twice that exhibited by 8-bromoguanosine (8BrGuo)

Question: `C=CCn1c(=S)n(C2OC(COC(=O)c3ccccc3)C3OC(C)(C)OC32)c2nc(N)nc(OC(=O)c3ccccc3)c21` (centres unmarked) [compound 23314, 7-(2-Propenyl)-6,5'-dibenzoyl-2',3'-O-isopropylidene-8-thioxoguanosine] was tested. Which “Peak Concentration” value (Table 6, murine system) did it give?
Answer: 10^-5 moles per liter

Question: What about the “Peak Direct anti-SRBC PFC/Culture” value (Table 6, study b) of the same molecule?
Answer: 243 ± 19 PFC/Culture

Question: How did the “Peak Direct anti-SRBC PFC/Culture” value (Table 6, study c) turn out when `C=CCn1c(=S)n([C@@H]2O[C@H](COC(=O)c3ccccc3)[C@H]3OC(C)(C)O[C@H]32)c2nc(NC(=O)c3ccccc3)[nH]c(=O)c21` [compound 23350, 7-(2-Propenyl)-2-N,5'-O-dibenzoyl-2',3'-O-isopropylidene-8-thioxoguanosine hemihydrate] was run?
Answer: 45 ± 8 PFC/Culture

Question: What about the “adjuvanticity, in words” value (murine system) of the same molecule?
Answer: substantially inactive at the concentrations utilized

Question: What does the source list for `C=CCn1c(=S)n(C2OC(COC(=O)c3ccccc3)C3OC(C)(C)OC32)c2nc(N)[nH]c(=O)c21.O` (centres unmarked) [compound 23351, 7-(2-Propenyl)-5'-benzoyl-2',3'-O-isopropylideneguanosine-8-thioxoguanosinequarterhydrate]?
Answer: Peak Concentration (Table 6, murine system): 10^-4 moles per liter; Peak Direct anti-SRBC PFC/Culture (Table 6, study a): 1431 ± 134 PFC/Culture; adjuvanticity, in words (murine system): A similar result was obtained

Question: How did the “Peak Direct anti-SRBC PFC/Culture” value [1] turn out when `CCCCCCCCCCn1c(=O)n([C@@H]2O[C@H](CO)[C@@H](O)[C@H]2O)c2nc(N)[nH]c(=O)c21` [compound 23894, 7-Decyl-8-oxoguanosine] was run?
Answer: 90 ± 15 PFC/Culture

Question: Which “Direct Anti-SRBC PFC/Culture” value does the source give for `CCCCCCn1c(=O)n([C@@H]2O[C@H](CO)[C@@H](O)[C@H]2O)c2nc(N)[nH]c(=O)c21` [compound 23924, 7-Hexyl-8-oxoguanosine] here?
Answer: 243 PFC/Culture

Question: For `CCCn1c(=O)n([C@@H]2O[C@H](CO)[C@@H](O)[C@H]2O)c2nc(N)[nH]c(=O)c21` [compound 24069, 7-Propyl-8-oxoguanosine], which “Direct Anti-SRBC PFC/Culture” value is on record?
Answer: 1306 PFC/Culture

Question: `Nc1nc2c(c(=O)[nH]1)n(Cc1ccccc1)c(=O)n2[C@@H]1O[C@H](CO)[C@@H](O)[C@H]1O` [compound 24234, 7-Benzyl-8-oxoguanosine] was tested. Which “Peak Direct anti-SRBC PFC/Culture” value [1] did it give?
Answer: 2004 PFC/Culture

Question: And the “Average 1 Log Plaque Values” (Table 9, murine, * = single study)?
Answer: 110,777 ± 42,823 per micromole
